Test results taken from paper PMC11172460 (International Journal of Molecular Sciences, 2024).

How the values were obtained:
[1] = Hydrolysis kinetics in rat whole blood; assay type: in vitro ADME
Procedure: Kinetic analysis of Fer-Ger was performed by incubating the compound at 37 °C in heparinized whole blood obtained from healthy human volunteers or from male Wistar rats weighing 200–250 g. In particular, appropriate amounts of stock solution in DMSO were added to a volume of 3 mL of whole blood in order to obtain the final concentration of 30 µM (9.92 µg/mL). Samples (100 μL) were withdrawn at defined time intervals and immediately treated. Specifically, they were firstly added to ice-cold water (500 µL); then, sulfosalicylic acid (10%, 50 µL) and the internal standard (100 μM carbazole dissolved in a mixture of MeOH and H2O 50:50 v/v, 50 µL) were added; finally, 1 mL of H2O-saturated ethyl acetate was used twice as extraction solvent. The samples were centrifuged (13,500× g for 10 min) and the organic phase was evaporated under a nitrogen stream. The residue was re-suspended in a mixture of H2O and CH3CN (50:50 v/v, 150 µL) and centrifuged (16,000× g for 5 min). […] All the values were derived from the mean of three independent incubation experiments.
The Fer-Ger degradation in whole blood or homogenates was analyzed as exponential decay plots of its concentrations versus incubation time, and the related half-life values were obtained from the linear regression of the corresponding semi-logarithmic plots. The quality of the fits was evaluated by considering the correlation coefficients (r) and p values. The computer program GraphPad Prism 7 (GraphPad, San Diego, CA, USA) allowed to perform the calculations.
(§1) Fer-Ger and its hydrolysis product, Ger, were quantified by HPLC. The chromatographic apparatus consisted of a modular system (model LC-40D) pump and DAD detector (model SPD-M40, Shimadzu, Kyoto, Japan) and an injection valve with a 20 μL sample loop (model 7725; Rheodyne, IDEX, Torrance, CA, USA).

[2] = Kinetic analysis (stability) in Tris-HCl buffer; assay type: physicochemical; details: Tris-HCl buffer pH 7.4 (with MeOH 70:30), 37 °C, three hours, 20 µM
Procedure: Kinetic analysis of Fer-Ger was performed by its incubation at 20 µM (6.61 µg/mL) final concentration and at 37 °C in 30 mL of a mixture of Tris-HCl buffer 50 mM (pH 7.4) and MeOH 70:30 (v/v). […] All the values were derived from the mean of three independent incubation experiments.
as §1

differentiated N2a cells = assay: DCFH-DA assay of intracellular ROS production; assay type: cell-based, mouse
Procedure: N2a cells were seeded on T75 flasks and grown in Dulbecco’s Modified Eagle Medium (DMEM) containing Glutamax, supplemented with 100 μg/mL streptomycin, 100 IU/mL penicillin, and 10% fetal bovine serum (FBS) in a humidified 5% CO2 atmosphere at 37 °C. After two passages by trypsinization, cells were seeded at a density of 5 × 10^3 cells/well in 12-well plates with 2 mL of DMEM or at a density of 5 × 10^2 cells/well in 96-well plates with 0.2 mL of DMEM, depending on the study (see below). For neural differentiation, N2a cells were allowed to adhere and proliferate in wells for 4 days; then, after washing once with serum-free DMEM, differentiating medium composed of DMEM containing 1% HS and 20 μM all-trans-retinoic acid (atRA) was added in both the seeding conditions, up to 6 days of differentiation, after which the cells were used for the experiments.
The potential antioxidant effect of Fer-Ger was evaluated according to the original method of Wang and Joseph. In this method, the nonpolar 2′,7′-dichlorofluorescin diacetate (DCFH-DA) enters the intact cells and is hydrolyzed by intracellular esterases to nonfluorescent DCFH carboxylate anion, which remains entrapped and becomes the high fluorescent dichlorofluorescin (DCF) after oxidation by free radicals generated by a stressor, such as H2O2. Therefore, H2O2-induced intracellular ROS production was measured in N2a cells by a florescence intensity assay following exposure to the oxidation-sensitive dye DCFH-DA. N2a cells were seeded at a density of 1 × 10^4 cells/well in a black-coated and clear bottom 96-well plate and neuron-differentiated as reported above. After 6 days, differentiating medium in N2a cells was replaced with pre-warmed phenol-red-free and serum-free DMEM containing 10 µM DCFH-DA and incubated for 30 min in the dark in a humidified 5% CO2 atmosphere at 37 °C. The 10 µM DCFH-DA loading solution was then removed, and the cells were washed twice with fresh phenol-red-free and serum-free DMEM to remove the redundant extracellular DCFH-DA probe. Subsequently, N2a cells were incubated with pre-warmed phenol-red free DMEM containing 1% FBS as an untreated control and with solutions dissolved in phenol-red free DMEM containing 1% FBS of Fer-Ger (1, 5, or 10 µM) or 100 µM ascorbic acid (AA, as an established antioxidant positive control) and incubated for 1 h in a humidified 5% CO2 atmosphere at 37 °C. After this time, 100 µM H2O2 was added in the absence or presence of 1, 5 or 10 µM Fer-Ger or 100 µM AA, and the fluorescence intensity was measured at an excitation wavelength of 485 nm and at an emission wavelength of 530 nm, monitoring the oxidation of DCFH to DCF by the intracellular ROS by running the kinetic over 75 min in a fluorescence microplate reader (VICTOR^3TM 1420 Multilabel counter, PerkinElmer, Milan, Italy). Results were represented as a percentage of intracellular ROS production (100% of control) resulting from the mean values ± SEM of sextuplicate wells over time.

[3] = In vitro dissolution and release from SLMs; assay type: physicochemical; details: within 6 h, DPBS/MeOH 70:30 v/v, 37 °C
Procedure: Fer-Ger dissolution and release from the SLMs were evaluated by adding raw Fer-Ger (about 0.1 mg) or SLMs, containing an equivalent amount of Fer-Ger, to 60 mL of a mixture of DPBS and methanol (70:30 v/v). The samples were kept under mechanical stirring at 50 rpm and 37 °C. At defined time intervals, 0.2 mL aliquots of the medium were withdrawn and replaced with an equal volume of fresh fluid. The aliquots were filtered (0.45 μm) and injected (10 μL) into the HPLC apparatus for Fer-Ger quantification. The dissolution or release (%) of Fer-Ger was calculated from its total amount incubated as a free compound or contained in the SLMs, respectively. The data were determined from the average of three independent experiments.

For `COc1cc(/C=C/C(=O)OC/C=C(\C)CCC=C(C)C)ccc1O` [Fer-Ger, Geranyl ferulate], the half-life at 30 µM ([1]; male, Wistar, heparinized whole blood, rat whole blood, 37 °C, 30 µM, pseudo-first-order kinetic, read-out: half-life (t1/2) of hydrolysis) was 20.1 ± 0.75 min, the “time to almost complete degradation” value ([1]; rat whole blood) was ≤ 2 h and the “hydrolysis rate relative to human whole blood” value ([1]; rat whole blood vs human whole blood) was “about 10 times faster”. For the same compound, the “degradation in Tris-HCl buffer” value [2] was “not degraded”, the “effect on basal ROS production” value (differentiated N2a cells; Fer-Ger 1, 5 and 10 µM alone, 75 min) was “did not affect the ROS production” and the “effect on H2O2-induced ROS production” value (differentiated N2a cells; Fer-Ger 1, 5 and 10 µM with 100 µM H2O2, all times tested, p < 0.05) was “increased the H2O2-induced ROS production”. The “raw powder solubilized (dissolution)” value [3] was “about 30%”.
